Tests used:
[1] = caloric availability by in vivo animal feeding study (body weight gain); design: species or system male Sprague-Dawley rats; conditions: rats, diet of 50% fort and 21% test compound, 14 days; from weight gain versus corn oil base line
Source text: This example illustrates how the novel fat mimetics of this invention are screened for caloric availability by a carefully controlled in vivo animal feeding study.
An experimental relationship between total calories ingested and animal body weight gain is established by monitoring the body weight gain associated with consumption of a nutritionally balanced diet containing varying concentrations of a reference substance such as corn oil which has a known caloric availability. Correlations between total calories ingested and body weight gain are excellent (r=0.99).
Caloric availability of an unknown substance is evaluated by substituting a specific weight of the unknown substance for the reference substance and observing the body weight gain. The gain in body weight is equated to a total number of calories using the correlation previously established for the reference data. The estimated number of calories ingested are divided by the weight of unknown substance to give the apparent calories per gram for the unknown substance. Generally speaking, in these bioavailability studies, the degree of perianal pelt soiling correlates with reduced bioavailability.
The test animals are six-week-old male Sprague-Dawley rats obtained from the Portage, Mich. facility of the Charles River Laboratories, Inc. After acclimation for 15 days, the test duration is 14 days. […]

[2] = in vitro digestibility (lipase hydrolysis, TLC densitometry); assay type: in vitro ADME, porcine; conditions: pig, pancreatic lipase; in three hours; 37° C., pH 7.1 phosphate buffer with cholic acid; read-out: hydrolyzed (extent of hydrolysis by lipase)
Experimental: (§1) This example outlines the procedure for estimating the in vitro digestibility of the long chain diol diesters of this invention.
(§2) 1. Buffer: A pH 7.1 phosphate buffer is prepared by dissolving 6.8 g. KH2 PO4 in 1 L. of millipore filtered water (to yield 0.05M phosphate). Fifty mg. Ca(NO3)2 and 5.0 g. cholic acid (Na salt, an ox bile isolate from Sigma) are added to give 300 microM Ca^++ and 0.5 % cholic acid in 0.05M phosphate. The pH is adjusted to approximately 7.1 with solid NaOH. Several drops of Baker "Resi-analyzed" toluene are added to prevent bacterial growth during storage at 3°-5° C.
(§3) 2. Lipase: About 15 mg./mL commercial porcine pancreatic lipase from U.S. Biochemical Corporation is dissolved in buffer.
(§4) 3. Substrates and Standards: A 1.0 mL volumetric flask is charged with an amount of lipid substrate calculated to give a concentration of 200 nanomoles per microliter in Baker "Resi-analyzed" toluene. (The proper concentration may be approximated by doubling the molecular weight of the lipid in question, dividing by 10, and diluting to the mark; this yields about 200 nanomoles per microliter.) This preparation affords the substrate to be used in the hydrolysis reactions. […]

[3] = system: porcine pancreatic lipase; assay: as above; assay type: in vitro ADME; conditions: in 10 minutes; 37° C., pH 7.1 phosphate buffer with cholic acid
Experimental: as §1, §2, §3, §4

Structure (SMILES)	caloric availability (kcal/gram upon being metabolized) [1]	metabolised at 3 h [2] [%]	hydrolysis by lipase (in words) [3]
CCCCCCCC/C=C\CCCCCCCC(=O)OCC(CCCCCCCCCCCC)OC(=O)CCCCCCC/C=C\CCCCCCCC (stereo not drawn) [Example 1, 1,2 Tetradecane dioleate]	about 6.0 kcal/gram	~20	
CCCCCCCC/C=C\CCCCCCCC(=O)OCC(COC(=O)CCCCCCC/C=C\CCCCCCCC)OC(=O)CCCCCCC/C=C\CCCCCCCC [triolein, reference compound]			substantially hydrolyzed
